Source: US20100047332A1, “Treatments for burns using thyroid hormone compound in a human” (priority 2005, published 2010)

Key:
[1] = tested on: cellulite and subcutaneous fat; experiment: TriAc cream before exercise for cellulite; type: in vivo, human; details: after twelve applications
Experimental: TriAc-containing creams were produced by dissolving TriAc in a suitable solvent and adding it to a cream base. […] TriAc could also be added to the oil phase of a water in oil or a oil in water cream base, or charged in a solid lipid nanoparticle, or applied as a liposome, or a matrix patch as is known in the art.
The cream was only applied before exercise. More specifically, application occurred between 30 minutes and 2 hours before mild exercise. The mild exercise involved the underlying musculature, and included long walks, jogging, or gym exercises involving light resistance exercises, or stairmasters, treadmills and the like.
The amount of cream applied was always less than 5 ml, just sufficient to cover the area, usually less than 2 ml. […] For most of the applications, the amount of cream applied was less than 3 ml and usually less than 1.5 ml. In these applications, less than 0.4 mg was applied and as little as 80 μg was applied in at least some of the applications. Exercise occurred one to three times a week. Consequently, the cream was only applied one to three times a week. Two grams of cream, approximately 2 mls, was sufficient to cover the buttocks, back of thighs, and anterior waist area.

TSH = details: topically applied, humans; cited from earlier work
[2] = tested on: plasma glycerol (lipolysis of fat); experiment: Plasma glycerol assay before and after mild exercise with topical TriAc cream; type: in vivo, human; details: for glycerol response relative to baseline: Triac applied; for Percentage change: glycerol after exercise vs baseline
Excerpt: This example uses a glycerol assay to determine the effectiveness of topically applied thyroid hormones or thyroid hormone like molecules as described in the art to increase lipolysis of fat when topically applied. More specifically, this example uses a glycerol assay to determine the effectiveness of topically applied thyroid hormones or thyroid hormone like molecules as described in the art to dissolve fat when topically applied in an amount less than a single oral dose used typically for daily therapeutic or replacement dosages.
Three adult humans (A, B, and C) with normally functioning thyroids and no history of cardiovascular disease, varying by age, sex, BMI, body surface area, and physical activity, were tested. Age varies from less than 25 (subject A) to over 40 (subjects B and C). BMI varied between 18 (A), 20 (C), and 30 (B). Physical activity was greatest in subject A, who had the lowest BMI and was also the youngest. The other two subjects typically had less than three hours of exercise per week. No food or drink other than water was given two hours prior to application of the TriAc formulation. With this short fast, the subjects are still in the fed state and plasma glycerol levels would be expected to not change during exercise, as taught in the literature for young fit subjects (Coyle et al, J Appl Physiol. 1985 August; 59(2):429-33, herein incorporated by reference). The fed state as defined herein is an individual not having an overnight fast. […] The amount of cream and thus TriAc amount was not varied according to age, sex, or weight. The cream was applied intermittently: application days were separated by at least two days.
The subjects rested for 30 minutes and then exercised in a defined manner to maintain either 65-70% of their age adjusted maximal heart rate or 110-120 strides on a Precor 544 EFX elliptical trainer for 30 minutes. Heart rate was monitored continuously with a Polar wireless monitoring device. Room temperature varied between 72 and 84 degrees. Calories expended (from Precor) per kilogram were approximately constant among each participant and between participants on a per kilogram basis during each of the exercise sessions and were usually around 3.0 to 3.5 calories per kg (see Table 4). After a 30 minute exercise session and a 5 minute programmed cool down session, another plasma glycerol assay was taken. The samples were immediately refrigerated and centrifuged after 0 to 10 hours, each exercise set treated exactly the same way, frozen at −40° C. and assayed with the Sigma-Aldrich plasma glycerol assay after deproteinization. Exercise time was fixed at a regular time of day. The next day, the experiment was repeated. The order was placebo day, then treatment day.
The magnitude of the change pre and post exercise with and without TriAc was calculated and the percentage change from baseline with and without TriAc was calculated.

[3] = group, exercise with the TriAc treatment

## O=C(O)Cc1cc(I)c(Oc2ccc(O)c(I)c2)c(I)c1 [TriAc, [4-(4-hydroxy-3-iodophenoxy)-3,5-diiodophenyl]acetic acid]
[1]; 8 to 16 mg TriAc per 100 ml, before exercise
  cellulite: little evidence of cellulite remained
[1]
  contour of the buttocks: smaller and smoother
TSH
  effect on TSH levels or other thyroid hormone function tests: no effect on TSH levels
[2]; no exercise, subject A, one experiment
  glycerol response relative to baseline: 80%
[2]; no exercise, subject B
  glycerol response relative to baseline: 13%
[2]; no exercise, subject C
  glycerol response relative to baseline: −40%
[2]; with exercise, subject A
  glycerol response relative to baseline: 250%
[2]; [3]
  average increase of the concentration of glycerol: 37 µM
  average increase of the concentration of glycerol above baseline: 124%
[2]; group, versus placebo
  increase of exercise induced breakdown of fat as evidenced by plasma glycerol: over 300%
[2]; subject A, Trial 1 Treatment
  Net change in glycerol concentration after exercise: 67.6 µM
  Percentage change: 258.9%
[2]; subject A, Trial 1 Treatment, 120 micrograms TriAc cream topical, After exercise
  Glycerol Concentration: 93.7 µM
[2]; subject A, Trial 1 Treatment, 120 micrograms TriAc cream topical, Before exercise (baseline)
  Glycerol Concentration: 26.2 µM
[2]; subject A, Trial 2 Treatment
  Net change in glycerol concentration after exercise: 66.2 µM
  Percentage change: 208.7%
[2]; subject A, Trial 2 Treatment, After exercise
  Glycerol Concentration: 97.9 µM
[2]; subject A, Trial 2 Treatment, Before exercise (baseline)
  Glycerol Concentration: 31.7 µM
[2]; subject A, Trial 3 Treatment
  Net change in glycerol concentration after exercise: 23.4 µM
  Percentage change: 121.4%
[2]; subject A, Trial 3 Treatment, After exercise
  Glycerol Concentration: 42.7 µM
[2]; subject A, Trial 3 Treatment, Before exercise (baseline)
  Glycerol Concentration: 19.3 µM
[2]; subject B, Trial 1 Treatment
  Net change in glycerol concentration after exercise: 29.0 µM
  Percentage change: 80.8%
[2]; subject B, Trial 1 Treatment, After exercise
  Glycerol Concentration: 64.8 µM
[2]; subject B, Trial 1 Treatment, Before exercise (baseline)
  Glycerol Concentration: 35.8 µM
[2]; subject B, Trial 2 Treatment
  Net change in glycerol concentration after exercise: 30.3 µM
  Percentage change: 100.0%
[2]; subject B, Trial 2 Treatment, After exercise
  Glycerol Concentration: 60.7 µM
[2]; subject B, Trial 2 Treatment, Before exercise (baseline)
  Glycerol Concentration: 30.3 µM
[2]; subject B, Trial 3 Treatment
  Net change in glycerol concentration after exercise: 17.9 µM
  Percentage change: 80.3%
[2]; subject B, Trial 3 Treatment, After exercise
  Glycerol Concentration: 40.0 µM
[2]; subject B, Trial 3 Treatment, Before exercise (baseline)
  Glycerol Concentration: 22.1 µM
[2]; subject C, Trial 1 Treatment
  Net change in glycerol concentration after exercise: 37.2 µM
  Percentage change: 87.1%
[2]; subject C, Trial 1 Treatment, After exercise
  Glycerol Concentration: 80.0 µM
[2]; subject C, Trial 1 Treatment, Before exercise (baseline)
  Glycerol Concentration: 42.7 µM
[2]; subject C, Trial 2 Treatment
  Net change in glycerol concentration after exercise: 38.2 µM
  Percentage change: 73.3%
[2]; subject C, Trial 2 Treatment, After exercise
  Glycerol Concentration: 90.3 µM
[2]; subject C, Trial 2 Treatment, Before exercise (baseline)
  Glycerol Concentration: 52.1 µM
[2]; subject C, Trial 3 Treatment
  Net change in glycerol concentration after exercise: 30.3 µM
  Percentage change: 110.0%
[2]; subject C, Trial 3 Treatment, After exercise
  Glycerol Concentration: 57.9 µM
[2]; subject C, Trial 3 Treatment, Before exercise (baseline)
  Glycerol Concentration: 27.6 µM
[2]; using percentage change in the concentration of glycerol, versus placebo
  increase of effectiveness of exercise to burn fat: about 400%
